# Experimental data reported in ChEMBL document CHEMBL2321869, “Ion channels as therapeutic targets: a drug discovery perspective” (J Med Chem, 2013).
# What was measured:
# [1] = target: Gamma-aminobutyric acid receptor subunit alpha-5 (Homo sapiens) (UniProt P31644); test: Positive allosteric modulation of GABAA alpha5 (unknown origin) relative to control
# [2] = target: Gamma-aminobutyric acid receptor subunit alpha-3 (Homo sapiens) (UniProt P34903); test: Positive allosteric modulation of GABAA alpha3 (unknown origin) relative to control
# [3] = target: T1, Gamma-aminobutyric acid receptor subunit alpha-5 (Homo sapiens, UniProt P31644); test: Positive allosteric modulation of GABAA alpha5 (unknown origin)
# T1 sequence (P31644 whole entry): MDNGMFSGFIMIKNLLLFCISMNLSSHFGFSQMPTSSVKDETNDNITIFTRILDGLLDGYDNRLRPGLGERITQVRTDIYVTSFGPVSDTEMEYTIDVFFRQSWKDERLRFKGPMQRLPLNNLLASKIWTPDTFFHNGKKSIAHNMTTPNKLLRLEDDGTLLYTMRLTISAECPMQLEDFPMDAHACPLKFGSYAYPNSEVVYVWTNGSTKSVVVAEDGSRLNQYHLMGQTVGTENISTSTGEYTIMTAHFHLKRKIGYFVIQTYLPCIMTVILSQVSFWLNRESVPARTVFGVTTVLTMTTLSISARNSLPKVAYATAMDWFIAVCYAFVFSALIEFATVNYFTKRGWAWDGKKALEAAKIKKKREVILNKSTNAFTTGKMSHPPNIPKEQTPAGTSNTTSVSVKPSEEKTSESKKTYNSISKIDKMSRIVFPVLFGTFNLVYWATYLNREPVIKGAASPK
# [4] = target: T2, Gamma-aminobutyric acid receptor subunit alpha-2 (Homo sapiens) (UniProt P47869); test: Positive allosteric modulation of GABAA alpha2 (unknown origin) relative to control
# T2 sequence (whole entry): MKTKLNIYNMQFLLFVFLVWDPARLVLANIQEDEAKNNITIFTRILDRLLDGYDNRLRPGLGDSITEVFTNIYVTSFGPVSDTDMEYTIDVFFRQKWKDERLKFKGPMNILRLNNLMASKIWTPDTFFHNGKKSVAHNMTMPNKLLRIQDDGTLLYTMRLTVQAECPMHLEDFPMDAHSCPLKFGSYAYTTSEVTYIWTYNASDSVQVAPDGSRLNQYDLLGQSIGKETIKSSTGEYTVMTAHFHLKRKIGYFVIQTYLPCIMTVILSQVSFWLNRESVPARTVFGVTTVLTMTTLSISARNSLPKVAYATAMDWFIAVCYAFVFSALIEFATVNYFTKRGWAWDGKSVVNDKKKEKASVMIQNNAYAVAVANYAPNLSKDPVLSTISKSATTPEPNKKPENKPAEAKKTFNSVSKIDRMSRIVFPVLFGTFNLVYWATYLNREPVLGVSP
# [5] = target: T3, Gamma-aminobutyric acid receptor subunit alpha-2 (Homo sapiens, UniProt P47869); test: Positive allosteric modulation of GABAA alpha2 (unknown origin)
# T3 sequence (P47869 whole entry): T2 sequence (whole entry)
# [6] = target: T4, Gamma-aminobutyric acid receptor subunit alpha-3 (Homo sapiens, UniProt P34903); test: Positive allosteric modulation of GABAA alpha3 (unknown origin)
# T4 sequence (P34903 whole entry): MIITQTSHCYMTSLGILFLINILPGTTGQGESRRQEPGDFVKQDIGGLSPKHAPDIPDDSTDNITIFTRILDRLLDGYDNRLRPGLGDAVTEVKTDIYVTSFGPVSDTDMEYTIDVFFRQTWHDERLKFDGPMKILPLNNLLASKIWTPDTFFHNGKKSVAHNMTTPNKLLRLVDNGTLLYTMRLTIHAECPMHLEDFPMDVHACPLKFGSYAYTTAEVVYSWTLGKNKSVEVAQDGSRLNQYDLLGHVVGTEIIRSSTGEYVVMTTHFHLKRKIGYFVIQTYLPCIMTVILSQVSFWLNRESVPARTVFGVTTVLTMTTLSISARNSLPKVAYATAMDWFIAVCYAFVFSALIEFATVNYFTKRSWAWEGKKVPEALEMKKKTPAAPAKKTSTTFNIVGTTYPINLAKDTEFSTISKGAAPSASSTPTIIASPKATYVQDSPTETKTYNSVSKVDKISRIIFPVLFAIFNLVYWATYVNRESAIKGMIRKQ
# [7] = species: Homo sapiens; test: Selectivity ratio of IC50 for human voltage-gated Na channel 1.5 to IC50 for human voltage-gated Na channel 1.3
# [8] = target: Sodium channel protein type 3 subunit alpha (Homo sapiens, UniProt Q9NY46); test: Inhibition of human voltage-gated Na channel 1.3
# Chain of Sodium channel protein type 3 subunit alpha (Q9NY46 whole entry): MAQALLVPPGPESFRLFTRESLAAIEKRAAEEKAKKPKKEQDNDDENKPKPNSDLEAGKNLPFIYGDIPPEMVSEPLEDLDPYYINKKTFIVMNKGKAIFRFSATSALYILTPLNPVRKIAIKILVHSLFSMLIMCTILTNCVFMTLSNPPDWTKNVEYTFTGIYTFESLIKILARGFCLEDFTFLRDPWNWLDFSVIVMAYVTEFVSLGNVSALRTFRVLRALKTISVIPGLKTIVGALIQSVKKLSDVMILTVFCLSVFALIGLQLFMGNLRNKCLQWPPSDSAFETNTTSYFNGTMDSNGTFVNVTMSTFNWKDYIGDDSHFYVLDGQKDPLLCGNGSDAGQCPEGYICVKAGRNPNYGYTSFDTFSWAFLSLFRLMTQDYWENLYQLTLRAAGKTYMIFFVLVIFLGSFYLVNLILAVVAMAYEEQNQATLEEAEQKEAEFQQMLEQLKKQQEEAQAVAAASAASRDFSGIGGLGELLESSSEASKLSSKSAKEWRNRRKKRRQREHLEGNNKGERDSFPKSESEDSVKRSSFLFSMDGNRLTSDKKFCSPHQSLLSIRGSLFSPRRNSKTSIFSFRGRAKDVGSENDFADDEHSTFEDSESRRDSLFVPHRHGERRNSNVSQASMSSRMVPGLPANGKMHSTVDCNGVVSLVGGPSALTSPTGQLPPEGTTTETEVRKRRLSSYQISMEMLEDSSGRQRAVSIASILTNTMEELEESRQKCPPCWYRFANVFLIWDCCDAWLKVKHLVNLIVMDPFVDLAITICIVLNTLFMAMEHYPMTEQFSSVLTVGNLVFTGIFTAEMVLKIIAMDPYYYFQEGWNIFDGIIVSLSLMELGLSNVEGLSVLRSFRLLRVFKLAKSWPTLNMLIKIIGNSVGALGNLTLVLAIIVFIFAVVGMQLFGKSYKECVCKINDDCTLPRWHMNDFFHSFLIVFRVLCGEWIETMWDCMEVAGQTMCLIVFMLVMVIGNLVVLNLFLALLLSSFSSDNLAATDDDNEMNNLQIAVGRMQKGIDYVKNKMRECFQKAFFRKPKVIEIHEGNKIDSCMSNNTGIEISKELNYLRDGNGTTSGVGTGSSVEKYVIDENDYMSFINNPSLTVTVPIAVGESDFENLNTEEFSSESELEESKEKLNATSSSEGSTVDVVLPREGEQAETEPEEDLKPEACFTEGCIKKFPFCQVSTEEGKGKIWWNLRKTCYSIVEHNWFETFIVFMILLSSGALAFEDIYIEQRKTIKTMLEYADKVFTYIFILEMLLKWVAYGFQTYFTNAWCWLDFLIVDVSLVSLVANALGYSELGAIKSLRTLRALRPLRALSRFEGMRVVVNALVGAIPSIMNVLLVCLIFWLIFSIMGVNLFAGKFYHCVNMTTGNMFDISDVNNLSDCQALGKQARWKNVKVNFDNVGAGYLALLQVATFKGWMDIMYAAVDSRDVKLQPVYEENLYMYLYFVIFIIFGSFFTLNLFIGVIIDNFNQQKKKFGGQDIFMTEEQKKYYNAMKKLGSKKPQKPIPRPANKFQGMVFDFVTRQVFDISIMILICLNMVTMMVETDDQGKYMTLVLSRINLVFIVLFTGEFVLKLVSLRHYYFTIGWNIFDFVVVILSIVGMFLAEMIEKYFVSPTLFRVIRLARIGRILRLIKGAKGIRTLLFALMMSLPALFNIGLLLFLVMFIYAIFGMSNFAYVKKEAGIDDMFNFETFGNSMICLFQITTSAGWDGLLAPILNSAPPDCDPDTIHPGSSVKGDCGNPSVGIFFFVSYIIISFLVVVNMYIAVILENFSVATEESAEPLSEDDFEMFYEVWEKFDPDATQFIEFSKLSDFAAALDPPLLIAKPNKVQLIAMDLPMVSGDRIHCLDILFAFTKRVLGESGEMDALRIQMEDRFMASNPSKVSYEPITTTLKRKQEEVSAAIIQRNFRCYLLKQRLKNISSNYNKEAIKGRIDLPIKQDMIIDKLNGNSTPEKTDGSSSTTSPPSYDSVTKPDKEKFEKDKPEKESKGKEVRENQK
# [9] = target: Gamma-aminobutyric acid receptor subunit alpha-1 (Homo sapiens) (UniProt P14867); test: Positive allosteric modulation of GABAA alpha1 (unknown origin) relative to control
# [10] = target: T5, Gamma-aminobutyric acid receptor subunit alpha-1 (Homo sapiens, UniProt P14867); test: Positive allosteric modulation of GABAA alpha1 (unknown origin)
# T5 sequence (P14867 whole entry): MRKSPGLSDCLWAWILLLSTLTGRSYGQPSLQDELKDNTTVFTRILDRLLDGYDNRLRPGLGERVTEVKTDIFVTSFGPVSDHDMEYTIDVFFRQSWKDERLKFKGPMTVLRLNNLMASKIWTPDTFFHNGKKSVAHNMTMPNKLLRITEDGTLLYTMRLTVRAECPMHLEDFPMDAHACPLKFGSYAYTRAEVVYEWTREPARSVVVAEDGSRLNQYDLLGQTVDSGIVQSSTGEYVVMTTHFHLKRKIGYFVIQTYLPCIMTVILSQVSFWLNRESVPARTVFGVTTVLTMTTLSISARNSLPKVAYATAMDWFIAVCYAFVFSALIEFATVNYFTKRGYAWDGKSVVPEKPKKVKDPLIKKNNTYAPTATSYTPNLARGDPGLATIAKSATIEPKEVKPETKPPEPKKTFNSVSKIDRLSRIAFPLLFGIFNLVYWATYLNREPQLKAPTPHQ
# [11] = target: Potassium voltage-gated channel subfamily KQT member 4 (Homo sapiens, UniProt P56696); test: Positive modulatory activity at voltage-gated K channel 7.4 (unknown origin)
# [12] = target: Calcium-activated potassium channel subunit alpha-1 (Homo sapiens, UniProt Q12791); test: Positive modulation of Kca 1.1 (unknown origin)
# [13] = target: Potassium voltage-gated channel subfamily KQT member 5 (Homo sapiens, UniProt Q9NR82); test: Positive modulatory activity at voltage-gated K channel 7.5 (unknown origin)
# [14] = target: Potassium voltage-gated channel subfamily KQT member 3 (Homo sapiens, UniProt O43525); test: Positive modulatory activity at voltage-gated K channel 7.3 (unknown origin)
# Chain of Potassium voltage-gated channel subfamily KQT member 3 (O43525 whole entry): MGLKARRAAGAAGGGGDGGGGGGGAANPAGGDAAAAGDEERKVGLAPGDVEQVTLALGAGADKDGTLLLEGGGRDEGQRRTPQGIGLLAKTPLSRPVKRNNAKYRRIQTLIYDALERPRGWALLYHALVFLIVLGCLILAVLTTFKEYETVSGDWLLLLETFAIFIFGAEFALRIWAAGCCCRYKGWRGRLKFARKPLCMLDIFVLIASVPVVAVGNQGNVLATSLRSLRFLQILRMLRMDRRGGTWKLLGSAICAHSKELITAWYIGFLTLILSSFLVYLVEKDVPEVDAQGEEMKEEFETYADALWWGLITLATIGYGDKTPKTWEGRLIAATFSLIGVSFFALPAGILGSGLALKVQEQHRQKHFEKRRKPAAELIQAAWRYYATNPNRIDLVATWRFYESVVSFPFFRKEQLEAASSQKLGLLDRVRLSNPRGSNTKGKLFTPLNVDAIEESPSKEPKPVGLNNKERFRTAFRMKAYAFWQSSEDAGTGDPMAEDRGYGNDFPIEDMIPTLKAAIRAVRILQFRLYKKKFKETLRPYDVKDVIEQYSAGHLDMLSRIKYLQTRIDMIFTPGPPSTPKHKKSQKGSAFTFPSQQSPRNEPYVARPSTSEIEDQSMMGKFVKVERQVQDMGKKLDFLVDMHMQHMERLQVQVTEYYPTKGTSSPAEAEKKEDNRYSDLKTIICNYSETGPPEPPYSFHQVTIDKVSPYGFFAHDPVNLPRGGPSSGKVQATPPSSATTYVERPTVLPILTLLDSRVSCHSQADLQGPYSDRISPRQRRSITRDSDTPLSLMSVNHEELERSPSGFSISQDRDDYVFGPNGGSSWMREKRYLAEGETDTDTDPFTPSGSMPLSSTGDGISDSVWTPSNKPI
# [15] = target: Potassium voltage-gated channel subfamily KQT member 2 (Homo sapiens, UniProt O43526); test: Positive modulatory activity at voltage-gated K channel 7.2 (unknown origin)
# [16] = Selectivity ratio of EC50 for mouse voltage-gated K channel 1.3 to EC50 for human voltage-gated K channel 1.4
# [17] = species: Mus musculus; test: Selectivity ratio of EC50 for mouse voltage-gated K channel 1.3 to EC50 for mouse voltage-gated K channel 1.1
# [18] = species: Mus musculus; test: Selectivity ratio of EC50 for mouse voltage-gated K channel 1.3 to EC50 for mouse voltage-gated K channel 1.7
# [19] = Selectivity ratio of EC50 for mouse voltage-gated K channel 1.3 to EC50 for rat voltage-gated K channel 1.2
# [20] = target: Potassium channel subfamily K member 2 (Homo sapiens, UniProt O95069); test: Inhibition of TREK-1 (unknown origin)
# Chain of Potassium channel subfamily K member 2 (O95069 whole entry): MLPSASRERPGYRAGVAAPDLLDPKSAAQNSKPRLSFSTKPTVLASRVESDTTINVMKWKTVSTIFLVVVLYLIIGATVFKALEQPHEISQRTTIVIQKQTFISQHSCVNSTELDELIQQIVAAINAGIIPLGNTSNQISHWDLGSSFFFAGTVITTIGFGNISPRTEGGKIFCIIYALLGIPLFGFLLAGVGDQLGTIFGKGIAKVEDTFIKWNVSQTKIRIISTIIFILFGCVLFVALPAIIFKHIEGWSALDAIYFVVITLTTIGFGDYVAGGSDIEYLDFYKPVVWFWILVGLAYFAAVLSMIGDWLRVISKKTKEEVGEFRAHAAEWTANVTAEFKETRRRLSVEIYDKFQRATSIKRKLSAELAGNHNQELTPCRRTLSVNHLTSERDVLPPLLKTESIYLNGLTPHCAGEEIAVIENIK
# [21] = target: Transient receptor potential cation channel subfamily V member 4 (Homo sapiens, UniProt Q9HBA0); test: Inhibition of TRPV4 (unknown origin)
# [22] = Inhibition of AMPA receptor (unknown origin); set-up: species or system Homo sapiens
# [23] = target: Glutamate receptor ionotropic, kainate 1 (Homo sapiens, UniProt P39086); test: Inhibition of GluK1 receptor (unknown origin)
# Chain of Glutamate receptor ionotropic, kainate 1 (P39086 whole entry): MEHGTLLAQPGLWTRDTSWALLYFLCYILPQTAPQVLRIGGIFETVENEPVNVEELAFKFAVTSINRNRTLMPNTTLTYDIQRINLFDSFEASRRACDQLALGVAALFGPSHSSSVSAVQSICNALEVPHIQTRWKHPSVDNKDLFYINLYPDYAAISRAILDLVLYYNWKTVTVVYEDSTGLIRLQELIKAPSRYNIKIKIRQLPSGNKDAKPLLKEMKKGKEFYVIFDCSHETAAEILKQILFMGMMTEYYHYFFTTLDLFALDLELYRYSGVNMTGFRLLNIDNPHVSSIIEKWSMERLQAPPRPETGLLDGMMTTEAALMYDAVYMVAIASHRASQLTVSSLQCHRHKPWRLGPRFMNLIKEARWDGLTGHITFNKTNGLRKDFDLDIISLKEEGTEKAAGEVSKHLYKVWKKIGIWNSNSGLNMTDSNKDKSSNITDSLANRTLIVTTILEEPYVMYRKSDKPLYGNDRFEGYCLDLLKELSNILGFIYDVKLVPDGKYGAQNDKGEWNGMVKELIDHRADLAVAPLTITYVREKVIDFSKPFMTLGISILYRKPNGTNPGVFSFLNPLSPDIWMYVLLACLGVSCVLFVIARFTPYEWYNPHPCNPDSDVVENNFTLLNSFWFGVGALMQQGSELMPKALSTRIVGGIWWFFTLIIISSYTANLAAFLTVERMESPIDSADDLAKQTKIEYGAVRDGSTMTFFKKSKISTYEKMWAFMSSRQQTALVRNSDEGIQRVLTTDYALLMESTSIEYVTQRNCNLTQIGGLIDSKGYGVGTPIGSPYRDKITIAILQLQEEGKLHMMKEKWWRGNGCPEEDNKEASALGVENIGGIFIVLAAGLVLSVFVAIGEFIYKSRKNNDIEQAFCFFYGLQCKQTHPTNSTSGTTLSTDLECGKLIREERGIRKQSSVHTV
# [24] = target: Inward rectifier potassium channel 4 (Homo sapiens, UniProt P48050); test: Inhibition of Kir2.3 (unknown origin)
# Chain of Inward rectifier potassium channel 4 (P48050 whole entry): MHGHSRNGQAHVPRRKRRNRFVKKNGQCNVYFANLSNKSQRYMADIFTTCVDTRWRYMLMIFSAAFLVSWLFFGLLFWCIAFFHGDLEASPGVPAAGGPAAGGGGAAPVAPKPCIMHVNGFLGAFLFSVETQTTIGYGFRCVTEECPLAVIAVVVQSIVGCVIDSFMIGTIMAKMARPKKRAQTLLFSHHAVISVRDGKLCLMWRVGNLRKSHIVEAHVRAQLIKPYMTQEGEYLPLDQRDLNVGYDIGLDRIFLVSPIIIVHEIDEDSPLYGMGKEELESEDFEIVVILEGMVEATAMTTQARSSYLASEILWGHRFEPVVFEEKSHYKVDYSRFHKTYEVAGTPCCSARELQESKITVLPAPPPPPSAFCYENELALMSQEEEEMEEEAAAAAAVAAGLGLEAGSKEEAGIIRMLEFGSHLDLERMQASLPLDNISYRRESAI
# [25] = Agonist activity at AMPA receptor in rat DRG neurons by patch clamp technique; settings: DRG neuron
# [26] = Agonist activity at AMPA receptor in rat hippocampal neurons by patch clamp technique; type: tissue-based; settings: Hippocampus
# [27] = species: Homo sapiens; test: Selectivity ratio of IC50 for human voltage-gated Na channel 1.5 to IC50 for human voltage-gated Na channel 1.8
# [28] = species: Homo sapiens; test: Selectivity ratio of IC50 for human voltage-gated Na channel 1.1 to IC50 for human voltage-gated Na channel 1.8
# [29] = species: Homo sapiens; test: Selectivity ratio of IC50 for human voltage-gated Na channel 1.7 to IC50 for human voltage-gated Na channel 1.8
# [30] = Blockade of ASIC (unknown origin); set-up: species or system Homo sapiens
# [31] = target: Inward rectifier potassium channel 2 (Mus musculus, UniProt P35561); test: Inhibition of mouse Kir2.1 expressed in HEK293 cells by patch clamp technique; type: cell-based
# Chain of Inward rectifier potassium channel 2 (P35561 whole entry): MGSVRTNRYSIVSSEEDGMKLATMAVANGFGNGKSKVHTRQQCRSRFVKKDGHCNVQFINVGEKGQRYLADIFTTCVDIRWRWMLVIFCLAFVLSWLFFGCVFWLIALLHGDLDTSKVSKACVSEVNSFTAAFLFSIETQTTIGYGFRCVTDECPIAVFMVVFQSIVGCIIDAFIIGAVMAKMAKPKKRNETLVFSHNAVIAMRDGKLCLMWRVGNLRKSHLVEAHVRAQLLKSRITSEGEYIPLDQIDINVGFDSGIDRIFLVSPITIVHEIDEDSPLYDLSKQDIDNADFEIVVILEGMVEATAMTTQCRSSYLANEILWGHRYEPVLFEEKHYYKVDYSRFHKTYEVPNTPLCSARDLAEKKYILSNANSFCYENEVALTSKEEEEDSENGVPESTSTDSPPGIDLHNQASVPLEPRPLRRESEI
smiles,measurement,setting,value
Cn1ncnc1COc1nn2c(-c3cc(F)ccc3F)nnc2cc1C(C)(C)C,Activity,[1],36%
same,Activity,[2],39%
same,Ki,[3],2.3 nM
same,Activity,[4],34%
same,Ki,[5],0.7 nM
same,Ki,[6],0.7 nM
O=C(NCc1ccc(Cl)c(C(F)(F)F)c1)c1ccc(S(=O)(=O)Nc2ncc(Cl)s2)cc1,Ratio IC50,[7],> 1000
same,IC50,[8],30 nM
Cc1cc(-c2nncc3c(C(C)(C)C)c(OCc4ncnn4C)nn23)no1,Activity,[2],-15%
same,Ki,[3],1.4 nM
same,Activity,[9],23%
same,Activity,[4],4%
same,Ki,[5],0.8 nM
same,Ki,[6],0.8 nM
same,Ki,[10],0.8 nM
CCOC(=O)c1ncn2c1[C@@H]1CCCN1C(=O)c1cc(OC)ccc1-2,Ki,[3],0.45 nM
same,Ki,[5],27 nM
same,Ki,[6],25 nM
same,Ki,[10],49 nM
COc1ccc(Cl)cc1[C@]1(F)C(=O)Nc2cc(C(F)(F)F)ccc21 [FLINDOKALNER],EC50,[11],2400 nM
same,EC50,[12],352 nM
same,EC50,[13],2400 nM
same,EC50,[14],2400 nM
same,EC50,[15],2400 nM
O=c1ccc2c(OCCCCc3ccccc3)c3ccoc3cc2o1,Ratio EC50,[16],17
same,Ratio EC50,[17],17
same,Ratio EC50,[18],17
same,Ratio EC50,[19],17
CCOC(=O)C1=C(COCCN)NC(C)=C(C(=O)OC)C1c1ccccc1Cl (centres undefined) [AMLODIPINE],IC50,[20],400 nM
CC(C)NCCN(C(C)C)S(=O)(=O)c1ccc(Cl)cc1Cl,IC50,[21],2300 nM
Cc1csc(-c2cc(-c3ccncc3)c3n(c2=O)CCCc2ccncc2-3)n1,Activity,[4],37%
same,Ki,[5],0.6 nM
same,Ki,[6],0.5 nM
same,Ki,[10],1.3 nM
O=C(O)[C@@H]1C[C@H]2C[C@@H](CCc3nn[nH]n3)CC[C@H]2CN1 [TEZAMPANEL ANHYDROUS],IC50,[22],500 nM
same,IC50,[23],500 nM
N=c1n(Cc2ccccc2)c2ccccc2n1CC(O)CN1CCOCC1 (centres undefined),IC50,[24],24 µM
N[C@@H](Cn1cc(Cl)c(=O)[nH]c1=O)C(=O)O,EC50,[25],2000 nM
same,EC50,[26],2000 nM
Cc1nocc1C(=O)Nc1ccc(-c2ccccc2OC(F)(F)F)c(N)n1,Ratio IC50,[27],> 20
same,Ratio IC50,[28],> 20
same,Ratio IC50,[29],> 20
N=C(N)NC(=O)c1nc(Cl)c(N)nc1N [AMILORIDE],IC50,[30],10 µM
COc1ccc(CNCc2cccc3ccccc23)cc1,IC50,[31],1800 nM
